These results are taken from patent US8058243B2, “Method for treating a brain cancer with ifenprodil” (HSC Research and Development Limited Partnership, priority 2006, dated 2011).

Where a name gives a salt, the structure may show the parent alone. Read-outs that look alike come from different tables or passages of the source.

The experiment concerns murine neural precursor cells (neurosphere cultures). The experiment in a line: HTS of LOPAC library against secondary neurosphere cultures, MTT proliferation assay at 3 μM, day 7 (z score, P value). Type of experiment: cell-based, mouse.
The mark [1] stands for this setting: yes/no: significantly inhibited neurosphere proliferation (P<0.01) in the primary screen.
Where [2] appears, read: LOPAC primary screen, neurosphere MTT proliferation, 3 μM, day 7.
The mark [3] stands for this setting: yes/no: significantly inhibited neurosphere proliferation in primary screen.
[4] abbreviates: LOPAC library screen, 3 μM, MTT, secondary neurosphere cultures, day 7.
Where [5] appears, read: primary LOPAC screen, 3 μM, MTT, neurosphere proliferation.
The mark [6] stands for this setting: yes/no: significantly inhibited neurosphere proliferation (P<0.01) in primary screen.
The mark [7] stands for this setting: LOPAC library screen at 3 μM, secondary neurosphere cultures, MTT.
The mark [8] stands for this setting: yes/no: significantly inhibited neurosphere proliferation in the primary screen.
[9] abbreviates: LOPAC screen, neurosphere MTT proliferation, 3 μM, day 7.
Setting [10] is: yes = significantly inhibited neurosphere proliferation (P<0.01) in the primary screen.

Turning to `N=C(N)NC(CCC(=O)O)C(=O)O` (stereo not drawn) [alpha-Guanidinoglutaric acid], where the note is “168 h, 3 µM”, the “Z Score” value is recorded as −9.041 and the Z score is −9.041. Further, the Activity result under setting [1] is listed as “yes”.

With `Br.CN=c1nc(-c2ccccc2)n(-c2ccccc2)s1` [SCH-202676 hydrobromide], the “Z Score” value is reported as 0.3599. The Z score under setting [2] was found to be 0.360. Moreover, the Activity entry under setting [3] is listed as “no”.

As to `CC(C)OC(=O)C(C)(C)Oc1ccc(C(=O)c2ccc(Cl)cc2)cc1` [Fenofibrate], the “Z Score” value under setting [4] was −2.116. The compound also registered a Z score under setting [2] of −2.116.

Turning to `Cn1c(=O)c2[nH]cnc2n(C)c1=O.Cn1c(=O)c2[nH]cnc2n(C)c1=O.NCCN` [Aminophylline ethylenediamine], the Activity result is on record as “no”. The “Z Score” value under setting [4] is recorded as −1.537. Moreover, under setting [5], the Z score is reported as −1.537.

On to `COc1ccccc1CNCCCCCCNCCCCCCCCNCCCCCCNCc1ccccc1OC` [Methoctramine (31), Methoctramine, reference compound], for which, where the note is “168 h, 3 µM”, the “Z Score” value is −7.012 and the Z score is recorded as −7.012. Besides, the Activity result under setting [1] is reported as “yes”.

Turning to `C[C@H](N)CN1CCc2ccc(Br)cc21.C[C@H](N)CN1CCc2ccc(Br)cc21.O=C(O)/C=C/C(=O)O` [VER-3323 hemifumarate salt], the “Z Score” value was −0.7614. This compound returned a Z score under setting [2] of −0.761. For the same compound, under setting [6], the Activity entry was “no”.

With `CC(=O)OC(C)C[N+](C)(C)C.[Cl-]` (stereo not drawn) [Acetyl-beta-methylcholine chloride], under setting [7], the “Z Score” value is reported as −0.3382. Under setting [5], this compound displayed a Z score of −0.338. Under setting [8], the Activity entry was “no”.

Under setting [2], `CCCN1CCc2cc(O)cc3c2[C@H]1Cc1ccc(O)c(O)c1-3` registered a Z score of −2.744. Further, the Activity result under setting [1] is reported as “yes”.

Consider `CCCCCCCCCC(=O)NC(CN1CCOCC1)[C@H](O)c1ccccc1.Cl` (mixture of isomers), for which the Activity entry was “no”. Further, under setting [2], the Z score is recorded as −1.109.

In the case of `COc1cc2nc(N3CCN(C(=O)OCc4ccccc4)[C@H](C(=O)NC(C)(C)C)C3)nc(N)c2cc1OC` [L-765,314], the “Z Score” value was −0.8308. Also, under setting [2], the Z score is given as −0.831. Further, the Activity result under setting [1] was “no”.

For the compound `CC1=C(CC(=O)O)c2cc(F)ccc2/C1=C\c1ccc(S(C)(=O)=O)cc1` [Sulindac sulfone], the “Z Score” value came out at 0.5924. Under setting [2], this compound registered a Z score of 0.592. For the same compound, the Activity entry under setting [3] is “no”.

For Dihydroergocristine methanesulfonate, the “Z Score” value is −0.773. The Z score under setting [9] was −0.773. Further, the Activity result under setting [6] was “no”.

Turning to `COc1cc(CC(C)N)c(OC)cc1I.Cl` (racemic) [(±)-DOI hydrochloride], under setting [9], the Z score is recorded as −1.345. Also, under setting [6], the Activity entry is reported as “no”.

As for `Oc1ccc2c3c1O[C@H]1c4[nH]c5ccccc5c4C[C@@]4(O)[C@@H](C2)N(CC2CC2)CC[C@]314` [Naltrindole hydrochloride], the “Z Score” value was −0.314. Further, the Z score under setting [2] is recorded as −0.314. In addition, the Activity result under setting [10] is given as “no”.

As for `CN1C[C@H](C(=O)N[C@]2(C)O[C@@]3(O)[C@@H]4CCCN4C(=O)[C@H](Cc4ccccc4)N3C2=O)C[C@@H]2c3cccc4[nH]cc(c34)C[C@H]21` [Dihydroergotamine methanesulfonate], the “Z Score” value under setting [7] is on record as −0.7795. In addition, the Z score under setting [9] is on record as −0.779. Besides, the Activity result under setting [6] is reported as “no”.

For `NCCCC(=O)O` [GABA], the “Z Score” value is given as −0.4389. For the same compound, the Z score under setting [5] is on record as −0.439. For the same compound, under setting [8], the Activity entry was “no”.

As to `C[C@]12CCC(=O)C=C1CC[C@@H]1[C@@H]2[C@@H](O)C[C@@]2(C)[C@H]1CC[C@]2(O)C(=O)CO` [Hydrocortisone], the “Z Score” value under setting [4] is on record as −3.049. This compound came in with a Z score under setting [2] of −3.049. The Activity result under setting [10] is listed as “yes”.

`Cn1cnc2c1c(=O)[nH]c(=O)n2C` [Theobromine]: where the note is “168 h, 3 µM”, the “Z Score” value is −1.392 and the Z score is −1.392. The Activity result under setting [8] is “no”.

For the compound `CC(=O)NBr` [N-Bromoacetamide], the “Z Score” value under setting [4] is given as −1.362. Also, the Z score under setting [9] is on record as −1.362. In addition, the Activity result under setting [6] is “no”.

In the case of `Cc1cc(C)c(/C=C2\C(=O)Nc3ccccc32)[nH]1` [SU 5416], the “Z Score” value is listed as −0.6622. This compound gave a Z score under setting [2] of −0.662. Moreover, the Activity result under setting [3] is reported as “no”.

On to `CCCCCCCCCCCCCCCCCCOCC(COP(=O)([O-])OCC[N+](C)(C)C)OC` (centres unmarked) [ET-18-OCH3], for which, under setting [7], the “Z Score” value is on record as −0.6259. In addition, the Z score under setting [9] is recorded as −0.626. For the same compound, the Activity entry under setting [6] is recorded as “no”.

In the case of `NS(=O)(=O)c1cc2c(cc1Cl)N=CNS2(=O)=O` [Chlorothiazide], under setting [4], the “Z Score” value was −3.165. The same compound showed a Z score under setting [2] of −3.165. Further, the Activity entry under setting [10] was “yes”.

As for `CNC(=O)[C@H]1O[C@@H](n2cnc3c(N)ncnc32)[C@H](O)[C@@H]1O` [5′-N-Methyl carboxamidoadenosine], the “Z Score” value is listed as −2.582. Besides, the Z score under setting [2] is −2.582. For the same compound, the Activity entry under setting [1] is “yes”.

In turn, `CC1CCN=C(N)S1.Cl` (racemic) [(±)-AMT hydrochloride] had a Z score under setting [2] of −2.366. In addition, the Activity entry under setting [10] is “yes”.

With `CCC(NC(C)C)C(O)c1ccc(O)c(O)c1.CS(=O)(=O)O` (centres unmarked) [Isotharine mesylate], the “Z Score” value was −0.6392. Moreover, under setting [2], the Z score is given as −0.639. Moreover, under setting [6], the Activity entry was “no”.

On to Foliosidine, for which the “Z Score” value was −0.0969. This compound had a Z score under setting [2] of −0.097. Further, the Activity entry under setting [6] is “no”.

As to `CC1CNCCN1S(=O)(=O)c1cccc2cnccc12.Cl.Cl` (centres unmarked) [H-7 dihydrochloride], the “Z Score” value was 0.6813. The compound also came in with a Z score under setting [2] of 0.681.

Turning to `O=C1c2c(O)cc(O)cc2O[C@H](c2ccc(O)c(O)c2)[C@H]1O` (racemic) [(±)-Taxifolin], the Z score (168 h, 3 µM) is given as 1.321. Also, the Activity result under setting [8] is given as “no”.

With `Cl.Nc1ccn([C@@H]2O[C@H](CO)[C@@H](O)[C@@H]2O)c(=O)n1`, under setting [4], the “Z Score” value is given as −11.27. The compound also showed a Z score under setting [2] of −11.274. Moreover, the Activity result under setting [1] is “yes”.

As for `CN[C@H](CC(=O)O)C(=O)O` [N-Methyl-D-aspartic acid], the “Z Score” value is listed as −1.86. Also, the Z score under setting [2] is reported as −1.860. Also, under setting [10], the Activity result is given as “no”.

On to `CN1CCc2cccc(Cl)c2CC1` [SKF 86466], for which the “Z Score” value turned out to be 0.8822. Under setting [2], the Z score is given as 0.882. The Activity result under setting [10] is on record as “no”.

For `NC(=O)CN1CC(O)CC1=O` (centres unmarked) [Oxiracetam], under setting [7], the “Z Score” value was −0.6131. Under setting [2], this compound displayed a Z score of −0.613. Also, the Activity result under setting [3] is recorded as “no”.

In the case of `N[C@H](CCC(=O)NCS(=O)(=O)O)C(=O)O` [gamma-D-Glutamylaminomethylsulfonic acid], the “Z Score” value (LOPAC library screen, 3 μM, MTT, neurosphere cultures) is −0.04649. Moreover, the Z score under setting [2] is listed as −0.046. The Activity result under setting [6] is “no”.

`C[N+](C)(C)CCOP(=O)([O-])OP(=O)([O-])OC[C@H]1O[C@@H](n2ccc(N)nc2=O)[C@H](O)[C@@H]1O.[Na+]` [Citicoline sodium]: the “Z Score” value under setting [7] is recorded as −0.1331. Besides, the Z score under setting [9] is given as −0.133. Also, under setting [6], the Activity result was “no”.
